According to patent US7314620B2, “Methods for diagnosis and treatment of PH domain signal transduction disorders” (New York University, priority 1995, dated 2008):
Values joined by “and” are separate entries in the source; they are usually repeats but may differ in a detail not shown here. Equal entries are not always repeated. Where two headings read alike, the source gives them in different places.

How the values were obtained:
[1] = molecular target: T1, PLCδ-PH (PH domain of rat PLC-δ1) (Rattus norvegicus, UniProt P10688); experiment: Isothermal titration calorimetry of inositol polyphosphate / PIP2 vesicle binding to PLCδ-PH; details: for Kd: read-out: KD
T1 construct: initiator methionine (N); made in house; host or cells: Escherichia coli (pET11a, T7 system)
T1 sequence (P10688 20-136): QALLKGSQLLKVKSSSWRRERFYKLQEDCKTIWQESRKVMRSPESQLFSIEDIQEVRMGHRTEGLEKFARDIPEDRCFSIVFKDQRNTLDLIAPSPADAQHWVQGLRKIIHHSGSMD
Description: The resulting titration curve was fit using Omega software (Wiseman et al., 1989).
All experiments utilized the OMEGA instrument from MicroCal (Wiseman, T. et al., Anal. Biochem. 179, 131-137, 1989), in the laboratory of Prof. Julian Sturtevant at Yale. Titrations were performed at 25° C. in 50 mM MOPS, 100 mM NaCl, pH 6.8 or 100 mM NH4OAc at pH 6.8. […] For each titration, PH domain solution was dialyzed exhaustively against the buffer used for dilution of highly concentrated stocks of ligand. Heats for dilution of the ligand solutions were determined in separate titrations of ligand into buffer solution present in the cell.
Higher concentrations were employed for weaker binding events. […] Stoichiometry, binding constant (Kβ) and ΔH were all allowed to float in the fitting procedure.
A titration curve such as that to an equation describing a simple-binding reaction (Wiseman, T. et al., Anal. Biochem. 179, 131-137, 1989). From this fit, values for the binding constant, stoichiometry and ΔH for the binding reaction are ascertained. […] Ferris, C. D. et al, Nature, 342, 87-89, 1989.

Dyn-PH = molecular target: T2, Dyn-PH (Homo sapiens, UniProt Q05193); experiment: Equilibrium gel filtration (Hummel and Dreyer) of PH domain binding to lipid vesicles; details: PIP2-containing vesicles
T2 construct: The PH domains from PLC-δ1, and dynamin, as well as the N-terminal PH domain of pleckstrin; made in house; host or cells: Escherichia coli (T7 system)
T2 sequence (Q05193 519-625 limits assumed): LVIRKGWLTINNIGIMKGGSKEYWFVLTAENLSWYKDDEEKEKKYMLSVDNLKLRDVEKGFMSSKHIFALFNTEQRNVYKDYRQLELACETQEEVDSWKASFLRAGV
Description: A 150×7.5 mm Superdex 75 column, attached to a Dionex HPLC system, was equilibrated with buffer containing PH domain at around 5 μM (depending upon the experiment). A suspension of vesicles that also contained 5 μM PH domain was then injected. In the absence of interaction between the PH domain and the vesicles, the resulting column profile (detected by absorbance at 280 nm) reflects only the lipid peak. However, if there is significant interaction, a trough is observed at a position corresponding to the elution position of the free PH domain, since the lipids have removed free PH domain from the column buffer. When such a trough was observed, in order to determine a KD for the interaction, a series of higher concentrations of PH domain were injected, all with constant lipid concentration. A plot of trough area against [PH] in the injected sample was linear, becoming positive when excess free protein was present in the injected sample (see FIG. 5B). This line was used to determine the point at which no trough was observed. […] Since [PH]total as well as [lipid]total in the injected sample are known, KD can be determined, as KD=([PH]free×[lipid]free)/[complex]. […]
We also utilized the equilibrium gel-filtration approach described by Hummel, J. P., and Dreyer, W. J., Biochim. […] If an interaction is observed, its KD can be determined as described in Experimental Procedures. […]

whole PLC-δ1 = molecular target: T3, whole PLC-δ1 (Homo sapiens, UniProt P51178); details: sucrose-loaded PIP2-containing vesicles; Rebecchi et al. 1992; read-out: apparent KD; cited from earlier work
T3 sequence (P51178 1-756): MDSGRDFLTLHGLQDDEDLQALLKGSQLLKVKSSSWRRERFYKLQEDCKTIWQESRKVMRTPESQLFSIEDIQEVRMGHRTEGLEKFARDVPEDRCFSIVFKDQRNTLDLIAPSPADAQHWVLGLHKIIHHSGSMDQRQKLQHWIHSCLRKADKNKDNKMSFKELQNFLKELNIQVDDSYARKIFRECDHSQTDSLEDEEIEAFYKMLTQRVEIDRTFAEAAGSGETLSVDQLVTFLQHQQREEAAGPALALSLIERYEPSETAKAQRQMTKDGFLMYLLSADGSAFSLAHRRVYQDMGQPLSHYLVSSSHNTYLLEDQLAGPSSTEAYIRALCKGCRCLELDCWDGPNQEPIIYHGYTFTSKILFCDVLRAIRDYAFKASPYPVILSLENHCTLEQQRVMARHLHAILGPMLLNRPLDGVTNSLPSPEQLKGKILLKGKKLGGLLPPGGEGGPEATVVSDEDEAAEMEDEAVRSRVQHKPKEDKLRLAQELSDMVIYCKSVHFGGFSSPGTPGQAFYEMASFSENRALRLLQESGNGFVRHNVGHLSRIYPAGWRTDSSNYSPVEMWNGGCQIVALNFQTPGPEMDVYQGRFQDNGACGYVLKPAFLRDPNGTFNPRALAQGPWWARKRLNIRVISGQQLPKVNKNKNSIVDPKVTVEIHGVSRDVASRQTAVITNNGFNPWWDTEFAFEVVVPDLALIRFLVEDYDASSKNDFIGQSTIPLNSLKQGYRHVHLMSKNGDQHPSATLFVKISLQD

[2] = ITC, PIP2 at 5% in DMPC vesicles

PIP2 in the vesicle preparation available for PLCδ-PH binding (apparent stoichiometry) [1, 2]: 57%
Kd [1, 2]: 1 µM and 0.95 µM
binding affinity in words ([1]; PIP2 in vesicles): submicromolar affinities
ΔG ([1]; individual titrations, 25° C): -8.22 kcal/M and -7.74 kcal/M
Stoichiometry n ([1]; individual titrations, 25° C, pH 6.8, quoted for IPn as the ligand, PIP2 in vesicles assuming 50% available): 0.88 ± 0.02 and 0.87 ± 0.02
Kd ([1]; individual titrations, 25° C, pH 6.8): 0.95 µM and 2.12 µM
binding to vesicles (Dyn-PH): no detectable binding
Substance: Phosphatidylinositol-(4,5)-bisphosphate [PIP2]
ΔH ([1]; individual titrations, 25° C): -13.6 ± 0.4 kcal/M and -17.4 ± 0.4 kcal/M
ΔS ([1]; individual titrations, 25° C): −18.1 cal · M^−1 · K^−1 and −32.4 cal · M^−1 · K^−1
Kd (whole PLC-δ1): ~2.5 µM
